Values of other authors as cited in patent publication US6399819B1, “Process for purifying creatine” (BASF Aktiengesellschaft, priority 1999, dated 2002).

Conditions: recrystallization from water

temperature above which decomposition of creatine to creatinine and N-methylhydantoin increases to a level no longer acceptable: about 80 °C
Structure (SMILES): CN(CC(=O)O)C(=N)N [creatine]
